Here are results for eight compounds from patent US20220227815A1, “COMPOSITIONS AND METHODS USEFUL IN TREATING BRAIN DISEASES” (University of Kansas, priority 2019, published 2022).

“And” between values parts separate entries of the source, which are not always exact repeats. Identical values can stand only once. “Also recorded” adds a separate entry of the source. Non-standard residues stand in square brackets, D forms with d. Residues, ends and D or L forms follow the SMILES beside them. ξ: configuration not given here. Thr(3ξ) = CC(O)[C@H](N)C(=O)O

Data set [1] relates to blood-brain barrier (BBB). In words: In vivo brain delivery of IRdye800CW-IgG mAb, NIRF quantification in brain homogenates. The settings on record: C57BL/6 mice; for average amount of IgG mAb in the brain: IRdye800CW-IgG mAb 21.6 nmol/kg i.v. alone or with 13 μmol/kg peptide, 15 min circulation, n=3; for brain delivery of IgG mAb compared to control (IgG mAb alone): IgG mAb 21.6 nmol/kg + 13 μmol/kg peptide i.v. On the procedure: (§1) The activity of each peptide in enhancing blood-brain barrier (BBB) penetration was evaluated by delivering IRdye800CW donkey anti-goat IgG mAb in C57BL/6 mice; the amounts of mAb in the brain were determined using NIRF imaging. Each group contained 3 mice per group (n=3) with a mixture of male and female mice, selected randomly for each arm of the study. The injection solution was prepared by adding 600 μL PBS into 0.5 mg lyophilized IgG mAb; then, approximately 1.5 mg lyophilized peptide was added into the mixture yielding the injectable formulation. A 100 μL solution of a mixture containing IgG mAb (21.6 nmol/kg) along with 13 μmol/kg peptide of the present technology was administered via tail vein. As a control, 100 μL of IgG mAb alone was administered via i.v. route. After the delivered molecules had been circulating for 15 min, the mice were sacrificed; then, a mixture of PBS with 0.5% Tween20 was administered for cardiac perfusion to remove the blood and […] molecules into the brain microvessels. The brain and other organs such as lung, heart, spleen, liver, and kidney were harvested and rinsed with PBS. The isolated organs were scanned with Odyssey® CLx for mAb quantification.
The brain deposition of IgG mAb was also quantified by NIRF imaging in brain homogenates. The isolated brains were mechanically homogenized in 2.0 mL of PBS. To make the standard solutions, IRDye800CW IgG mAb stock solution (70 μg/mL) was prepared; it was then diluted with various amounts of PBS to make six different mAb concentrations. To generate a calibration curve, the brain homogenate (200 μL) was aliquoted out to a 96-well plate. 10 μL of each concentration of IgG mAb was added to three different wells of blank brain homogenates. The standard spiked homogenates were at a range of 10-200 ng/mL IgG mAb in brain homogenate. The wells were scanned using the Odyssey® CLx scanner, and the signal intensities vs. concentrations of mAb per gram of brain were used to generate a calibration curve.
(§2) The BBB modulatory activities of ADTC5 and HAV6 to enhance brain delivery of IRdyeR800CW-labeled lysozyme, albumin, IgG mAb, and fibronectin were compared in C57BL/6 mice. The proteins with or without 13 μmol/kg HAV6 or ADTC5 were administered via tail vein injection. For lysozyme, the delivered doses were 21.6 and 54 nmol/kg. For albumin, IgG mAb, and fibronectin, the dose used was 21.6 nmol/kg. Fifteen minutes after IgG mAb administration with or without a peptide of the present technology, the animals were sacrificed and PBS with 0.5% Tween-20 was administered for cardiac perfusion to remove the remaining protein in the BBB microvessels. The brain and other organs such as lung, heart, spleen, liver and kidney were harvested and rinsed with PBS. Protein depositions in the brain and other organs were quantified by NIRF imaging using an Odyssey CLx NIRF scanner.
(§3) A second quantification method was done using brain homogenates. In this case, the brains were homogenized in 2.0 mL PBS by mechanical disruption and 200 μL of homogenized brain (n=8) was aliquoted to a 96-well plate followed by quantification using the Odyssey CLx scanner. The signal intensity was compared to calibration curve and normalized to brain weight and homogenate volume.

Data set [2] in a line: Peripheral organ deposition of IRdye800CW-labeled proteins by NIRF imaging. The format is in vivo, C57BL/6 mice. As to conditions: for IgG mAb deposition in other organs (liver, kidney, heart, spleen, lungs) compared to control: IgG mAb 21.6 nmol/kg + 13 μmol/kg peptide i.v., NIRF signal intensity, n=3. On the procedure: as §1, §2
Data set [3] has as its system blood-brain barrier (BBB). In words: In vivo brain delivery of IRdye800CW-lysozyme (15 kDa). Details: species or system C57BL/6 mice. The settings on record: for amount of lysozyme in the brain: IRdye800CW-lysozyme 54 nmol/kg i.v. alone or with 13 μmol/kg peptide, C57BL/6 mice. On the procedure: Preparation of Stock and Standard Curves. The stock solution for IRDye800CW protein (i.e., lysozyme, 70 μg/mL) was prepared and stored at −80° C. The stock solution was later diluted with PBS to make the required standard solutions. To produce a standard calibration curve, 200 μL of blank brain homogenates was spiked with 10 μL standard solutions of various concentrations to yield a linear range from 0.5 to 50 ng/mL. The same method was employed for the sample's quality control (QC).
as §2, §3
(§4) Brain Perfusion. After euthanasia using CO2 chamber, mice were immediately subjected to cervical dislocation followed by removal of IRdye800CW-labeled protein from the brain capillaries using perfusion solution. In this case, a solution containing PBS with 0.2% Tween-20 was transcardially perfused to remove the remaining protein molecules in the brain endothelial microvessels. After perfusion, the brain was removed from the skull and subjected to capillary depletion.

For data set [4], the system named is blood-brain barrier (BBB). As to the kind of experiment: In vivo brain delivery of IRdye800CW-albumin (65 kDa). As to conditions: IRdye800CW-albumin 21.6 nmol/kg i.v. alone or with 13 μmol/kg peptide, C57BL/6 mice. The procedure: as §2, §3, §4
Data set [5] concerns blood-brain barrier (BBB). In words: In vivo brain delivery of IRdye800CW-fibronectin (220 kDa). Details: species or system C57BL/6 mice. As to conditions: IRdye800CW-fibronectin 21.6 nmol/kg i.v. alone or with ADTC5 13 μmol/kg. On the procedure:
as §2, §3, §4

Setting [6] is: albumin 21.6 nmol/kg with 13 μmol/kg peptide, NIRF.

As for `CC(C)[C@@H]1NC(=O)[C@H](C)NC(=O)[C@H](Cc2c[nH]cn2)NC(=O)[C@H](CO)NC(=O)[C@H](C(C)C)NC(=O)[C@@H]2CCCN2C(=O)[C@@H]2CCCN2C(=O)[C@H](C(C)O)NC1=O` (stereo partly drawn) (cyclo(AV[Thr(3ξ)]PPVSH)), in data set [1], the “average amount of IgG mAb in the brain” value is listed as 15.7±0.8 pmol/g brain and the “brain delivery of IgG mAb compared to control (IgG mAb alone)” value is listed as “significantly better than in the PBS control; also recorded: significant difference”. Further, the “IgG mAb deposition in other organs (liver, kidney, heart, spleen, lungs) compared to control” value (“IgG mAb deposition … compared to control” below) in data set [2] was “significant increases in deposition of IgG mAb in liver, kidney, spleen, and lungs; also recorded: significant differences in the IgG mAb signal in lung, kidney, spleen, and liver”.
Regarding `CC(=O)N[C@@H](CO)C(=O)N[C@@H](Cc1c[nH]cn1)C(=O)N[C@@H](C)C(=O)N[C@H](C(=O)N[C@@H](CO)C(=O)N[C@@H](CO)C(N)=O)C(C)C` [HAV6, acetyl-SHAVSS-NH2] (Ac-SHAVSS-NH2), the “amount of lysozyme in the brain” value in data set [3] was 8.3±2.5 pmol/g brain. Also, the “brain delivery of lysozyme compared to lysozyme alone” value in data set [3] (lysozyme 21.6 nmol/kg with 13 μmol/kg peptide) was “no significant improvement”. Also, the “amount of albumin in the brain” value in data set [4] is listed as 15.5±3.1 pmol/g brain. Moreover, in data set [1], the “average amount of IgG mAb in the brain” value was 3.4±0.4 pmol/g brain and 3.42±0.5 pmol/g brain and 3.4 ± 0.5 pmol/g brain; the “brain delivery of IgG mAb compared to control (IgG mAb alone)” value is given as “did not enhance; also recorded: not able to deliver mAb”. The “IgG mAb deposition … compared to control” value in data set [2] is listed as “no significant difference”. For the same compound, the “distribution of mAb into liver” value in data set [2] (IgG mAb 21.6 nmol/kg with 13 μmol/kg peptide, compared to control) is on record as “about the same”. In data set [2] (setting [6]), the “deposition of albumin in the spleen compared to control” value is “enhanced” and the “distribution of albumin into the liver compared to control” value is reported as “significantly enhanced”. Moreover, in data set [2] (lysozyme 54 nmol/kg with 13 μmol/kg peptide, NIRF), the “lysozyme deposition in the kidney” value is reported as “followed by the HAV6-treated group”.
For the compound `CC(C)[C@@H]1NC(=O)[C@H](C)NC(=O)[C@H](Cc2c[nH]cn2)NC(=O)[C@H](CO)NC(=O)[C@H](CO)NC(=O)[C@H](CO)NC1=O` [HAVN1, cyclo(1,6)SHAVSS] (cyclo(AVSSSH)), in data set [1], the “average amount of IgG mAb in the brain” value amounted to 8.6±0.5 pmol/g brain and the “brain delivery of IgG mAb compared to control (IgG mAb alone)” value was “significantly enhanced; also recorded: significant difference”. The “IgG mAb deposition … compared to control” value in data set [2] was “no significant difference”.
With `CC(C)[C@@H]1NC(=O)[C@H](C)NC(=O)[C@H](Cc2c[nH]cn2)NC(=O)[C@H](CO)NC(=O)[C@H](CO)NC1=O` [HAVN2, cyclo(1,5)SHAVS] (cyclo(AVSSH)), in data set [1], the “average amount of IgG mAb in the brain” value is on record as 8.8±0.6 pmol/g brain and the “brain delivery of IgG mAb compared to control (IgG mAb alone)” value was “significantly enhanced; also recorded: significant difference”. The “IgG mAb deposition … compared to control” value in data set [2] was “no significant difference”.
For the compound `CC(=O)N[C@H](C(=O)N1CCC[C@H]1C(=O)N1CCC[C@H]1C(=O)N[C@H](C(=O)N[C@@H](CO)C(=O)N[C@@H](Cc1c[nH]cn1)C(=O)N[C@@H](C)C(=O)N[C@H](C(N)=O)C(C)C)C(C)C)C(C)O` (stereo partly drawn) [linear ADTHAV], in data set [1], the “average amount of IgG mAb in the brain” value stood at 11.8±0.5 pmol/g brain and the “brain delivery of IgG mAb compared to control (IgG mAb alone)” value is recorded as “significantly better than in the PBS control; also recorded: significant difference”. The “IgG mAb deposition … compared to control” value in data set [2] is “significant effects on the distribution of IgG mAb in the heart and kidney; also recorded: significance differences in the IgG mAb signal intensities for kidney and heart”.
Albumin [reference compound]: the figures for the “amount of albumin in the brain” value in data set [4] and in data set [4] (listed as albumin) were 11.8 ± 1.0 pmol/g brain and 11.8±1.0 pmol/g brain, respectively.
As to Lysozyme [reference compound], the “amount of lysozyme in the brain” value is reported as 0 ± 0 pmol/g brain in data set [3] and “below the detection limits” in data set [3] (listed as lysozyme).
On to fibronectin [reference compound], for which, in data set [5], the “NIRF signal of fibronectin in brain homogenates” value is reported as 33.026±2.080 ×10^3 A.U.
